Results as given in the NIST ThermoML archive (doi:10.1016/j.jct.2012.06.012).
± gives the expanded uncertainty stated by the source.

Assay: xn = mol fraction of the nth substance listed
Conditions: Liquid, Vibrating tube method

CCCCCCCCCC [decane] + CCO
Conditions	mass density [kg/m3]
352.7 K, 1000 kPa, x2 = 0.1011	683.33 ± 0.23
352.7 K, 2000 kPa, x2 = 0.1011	684.45 ± 0.25
352.7 K, 3000 kPa, x2 = 0.1011	685.55 ± 0.26
352.7 K, 4000 kPa, x2 = 0.1011	686.65 ± 0.27
352.7 K, 5000 kPa, x2 = 0.1011	687.72 ± 0.29
352.7 K, 6000 kPa, x2 = 0.1011	688.78 ± 0.3
352.7 K, 7000 kPa, x2 = 0.1011	689.84 ± 0.32
352.7 K, 8000 kPa, x2 = 0.1011	690.9 ± 0.33
352.7 K, 9000 kPa, x2 = 0.1011	691.94 ± 0.35
352.7 K, 10000 kPa, x2 = 0.1011	692.96 ± 0.36
352.7 K, 11000 kPa, x2 = 0.1011	693.98 ± 0.37
352.7 K, 12000 kPa, x2 = 0.1011	695 ± 0.39
352.7 K, 13000 kPa, x2 = 0.1011	695.99 ± 0.4
352.7 K, 14000 kPa, x2 = 0.1011	696.97 ± 0.42
352.7 K, 15000 kPa, x2 = 0.1011	697.93 ± 0.43
352.7 K, 16000 kPa, x2 = 0.1011	698.88 ± 0.44
352.7 K, 17000 kPa, x2 = 0.1011	699.83 ± 0.46
352.7 K, 18000 kPa, x2 = 0.1011	700.74 ± 0.47
352.7 K, 19000 kPa, x2 = 0.1011	701.63 ± 0.49
352.7 K, 20000 kPa, x2 = 0.1011	702.51 ± 0.5
352.76 K, 1000 kPa, x2 = 0.7526	702.43 ± 0.22
352.76 K, 2000 kPa, x2 = 0.7526	703.63 ± 0.23
352.76 K, 3000 kPa, x2 = 0.7526	704.82 ± 0.25
352.76 K, 4000 kPa, x2 = 0.7526	706.01 ± 0.26
352.76 K, 5000 kPa, x2 = 0.7526	707.19 ± 0.27
352.76 K, 6000 kPa, x2 = 0.7526	708.35 ± 0.29
352.76 K, 7000 kPa, x2 = 0.7526	709.51 ± 0.3
352.76 K, 8000 kPa, x2 = 0.7526	710.66 ± 0.31
352.76 K, 9000 kPa, x2 = 0.7526	711.8 ± 0.33
352.76 K, 10000 kPa, x2 = 0.7526	712.92 ± 0.34
352.76 K, 11000 kPa, x2 = 0.7526	714.03 ± 0.35
352.76 K, 12000 kPa, x2 = 0.7526	715.12 ± 0.36
352.76 K, 13000 kPa, x2 = 0.7526	716.21 ± 0.38
352.76 K, 14000 kPa, x2 = 0.7526	717.27 ± 0.39
352.76 K, 15000 kPa, x2 = 0.7526	718.31 ± 0.4
352.76 K, 16000 kPa, x2 = 0.7526	719.35 ± 0.42
352.76 K, 17000 kPa, x2 = 0.7526	720.36 ± 0.43
352.76 K, 18000 kPa, x2 = 0.7526	721.35 ± 0.44
352.76 K, 19000 kPa, x2 = 0.7526	722.32 ± 0.45
352.76 K, 20000 kPa, x2 = 0.7526	723.29 ± 0.47
352.85 K, 1000 kPa, x2 = 0.2507	684.78 ± 0.23
352.85 K, 2000 kPa, x2 = 0.2507	685.92 ± 0.24
352.85 K, 3000 kPa, x2 = 0.2507	687.03 ± 0.26
352.85 K, 4000 kPa, x2 = 0.2507	688.14 ± 0.27
352.85 K, 5000 kPa, x2 = 0.2507	689.24 ± 0.29
352.85 K, 6000 kPa, x2 = 0.2507	690.33 ± 0.3
352.85 K, 7000 kPa, x2 = 0.2507	691.41 ± 0.32
352.85 K, 8000 kPa, x2 = 0.2507	692.48 ± 0.33
352.85 K, 9000 kPa, x2 = 0.2507	693.55 ± 0.34
352.85 K, 10000 kPa, x2 = 0.2507	694.61 ± 0.36
352.85 K, 11000 kPa, x2 = 0.2507	695.65 ± 0.37
352.85 K, 12000 kPa, x2 = 0.2507	696.68 ± 0.39
352.85 K, 13000 kPa, x2 = 0.2507	697.7 ± 0.4
352.85 K, 14000 kPa, x2 = 0.2507	698.7 ± 0.41
352.85 K, 15000 kPa, x2 = 0.2507	699.68 ± 0.43
352.85 K, 16000 kPa, x2 = 0.2507	700.65 ± 0.44
352.85 K, 17000 kPa, x2 = 0.2507	701.61 ± 0.45
352.85 K, 18000 kPa, x2 = 0.2507	702.54 ± 0.47
352.85 K, 19000 kPa, x2 = 0.2507	703.46 ± 0.48
352.85 K, 20000 kPa, x2 = 0.2507	704.34 ± 0.5
362.64 K, 1000 kPa, x2 = 0.1011	675.19 ± 0.23
362.64 K, 1000 kPa, x2 = 0.4963	680.64 ± 0.23
362.64 K, 1000 kPa, x2 = 0.9014	707.28 ± 0.22
362.64 K, 2000 kPa, x2 = 0.1011	676.37 ± 0.25
362.64 K, 2000 kPa, x2 = 0.4963	681.93 ± 0.24
362.64 K, 2000 kPa, x2 = 0.9014	708.6 ± 0.23
362.64 K, 3000 kPa, x2 = 0.1011	677.53 ± 0.26
362.64 K, 3000 kPa, x2 = 0.4963	683.18 ± 0.26
362.64 K, 3000 kPa, x2 = 0.9014	709.92 ± 0.24
362.64 K, 4000 kPa, x2 = 0.1011	678.69 ± 0.28
362.64 K, 4000 kPa, x2 = 0.4963	684.42 ± 0.27
362.64 K, 4000 kPa, x2 = 0.9014	711.21 ± 0.26
362.64 K, 5000 kPa, x2 = 0.1011	679.84 ± 0.29
362.64 K, 5000 kPa, x2 = 0.4963	685.66 ± 0.29
362.64 K, 5000 kPa, x2 = 0.9014	712.52 ± 0.27
362.64 K, 6000 kPa, x2 = 0.1011	680.98 ± 0.31
362.64 K, 6000 kPa, x2 = 0.4963	686.87 ± 0.3
362.64 K, 6000 kPa, x2 = 0.9014	713.8 ± 0.28
362.64 K, 7000 kPa, x2 = 0.1011	682.11 ± 0.32
362.64 K, 7000 kPa, x2 = 0.4963	688.09 ± 0.32
362.64 K, 7000 kPa, x2 = 0.9014	715.07 ± 0.29
362.64 K, 8000 kPa, x2 = 0.1011	683.24 ± 0.34
362.64 K, 8000 kPa, x2 = 0.4963	689.28 ± 0.33
362.64 K, 8000 kPa, x2 = 0.9014	716.3 ± 0.31
362.64 K, 9000 kPa, x2 = 0.1011	684.33 ± 0.35
362.64 K, 9000 kPa, x2 = 0.4963	690.44 ± 0.35
362.64 K, 9000 kPa, x2 = 0.9014	717.55 ± 0.32
362.64 K, 10000 kPa, x2 = 0.1011	685.43 ± 0.37
362.64 K, 10000 kPa, x2 = 0.4963	691.61 ± 0.36
362.64 K, 10000 kPa, x2 = 0.9014	718.74 ± 0.33
